Test results reported in article PMC8815882, “Screening the pandemic response box identified benzimidazole carbamates, Olorofim and ravuconazole as promising drug candidates for the treatment of eumycetoma” (PLoS Neglected Tropical Diseases, 2022).
≈ marks a conversion by molar mass, not a printed value. Read-outs that look alike come from different tables or passages of the source. Blank lines part the entries; values can stand above or below the molecule they belong to.

Experiments:
M. mycetomatis MM55 = experiment: IC50 determination, 2-fold dilution series; assay type: cell-based, Madurella mycetomatis; conditions: for IC50 / IC90: Madurella mycetomatis
M. mycetomatis = experiment: Drug static or cidal; assay type: cell-based, Madurella mycetomatis
Text: Supplement pntd.0010159.s001.xlsx, sheet "Pandemic Box Master sheet" | column: Drug static or cidal

[1] = tested on: M. mycetomatis genome strain MM55; experiment: CLSI M38-A2 based in vitro susceptibility screening (XTT or resazurin), growth at fixed concentration; assay type: cell-based, Madurella mycetomatis; conditions: Madurella mycetomatis
[2] = tested on: M. mycetomatis isolate MM55; experiment: M. mycetomatis grain infection model in G. mellonella larvae, survival; assay type: in vivo, Galleria mellonella; conditions: for Effect on larvae survival Day 4 (words): day four
[3] = tested on: ten different M. mycetomatis isolates; experiment: MIC / MIC50 determination (XTT) in ten M. mycetomatis isolates; assay type: cell-based, Madurella mycetomatis; conditions: Madurella mycetomatis
[4] = tested on: Me. romeroi strain CBS128765; experiment: CLSI M38-A2 based in vitro susceptibility screening at 25 μM; assay type: cell-based, Medicopsis romeroi; conditions: selected if >75% (resazurin) or >80% (XTT) fungal growth inhibited
[5] = MM55, mean of replicates, read-out: IC50 mean
[6] = MM55, mean of replicates, read-out: IC90 mean
[7] = MM55, replicate 1, read-out: IC50 1 um
[8] = MM55, replicate 1, read-out: IC90 1 um
[9] = MM55, replicate 2, read-out: IC50 2 um
[10] = MM55, replicate 2, read-out: IC90 2 um
[11] = MM55, replicate 3, read-out: IC50 3 um
[12] = MM55, replicate 3, read-out: IC90 3 um
[13] = 25 uM, replicate A, read-out: Percentage survival at 25um, 25 um A
[14] = 25 uM, replicate B, read-out: Percentage survival at 25um, 25 uM B
[15] = 25 uM, replicate C, read-out: Percentage survival at 25um, 25 uM C
[16] = G. mellonella larvae infected with M. mycetomatis

IC50 (M. mycetomatis MM55; [5]): > 25 µM
IC90 (M. mycetomatis MM55; [6]): > 25 µM
IC50 (M. mycetomatis MM55; [7]): > 25 µM
IC90 (M. mycetomatis MM55; [8]): > 25 µM
IC50 (M. mycetomatis MM55; [9]): > 25 µM
IC90 (M. mycetomatis MM55; [10]): > 25 µM
IC50 (M. mycetomatis MM55; [11]): > 25 µM
IC90 (M. mycetomatis MM55; [12]): > 25 µM
SMILES: Clc1ccc(Cn2c(CN3CCCC3)nc3ccccc32)cc1 [MMV002015]
Drug static or cidal (M. mycetomatis): Cidal
activity at 25 µM ([1]; 25 uM, mean of three replicates, read-out: Percentage survival at 25um, 25 uM mean): 6.67%
activity at 25 µM [1, 13]: 9.47%
activity at 25 µM [1, 14]: -1.23%
activity at 25 µM [1, 15]: 11.8%
activity at 100 µM ([1]; first replicate column, read-out: Percentage survival at 100um, 100 uM A): 3.95%
activity at 100 µM ([1]; mean of three replicates, read-out: Percentage survival at 100um, 100 uM mean): 4.96%
activity at 100 µM ([1]; second replicate column, read-out: Percentage survival at 100um, 100 uM A): 6.49%
activity at 100 µM ([1]; third replicate column, read-out: Percentage survival at 100um, 100 uM A): 4.45%

IC50 (M. mycetomatis MM55; [5]): > 25 µM
IC90 (M. mycetomatis MM55; [6]): > 25 µM
IC50 (M. mycetomatis MM55; MM55, replicate 1, read-out: IC50 1): 18.5 µM
IC90 (M. mycetomatis MM55; MM55, replicate 1, read-out: IC90 1): > 25 µM
IC50 (M. mycetomatis MM55; MM55, replicate 2, read-out: IC50 2): > 25 µM
IC90 (M. mycetomatis MM55; MM55, replicate 2, read-out: IC90 2): > 25 µM
IC50 (M. mycetomatis MM55; MM55, replicate 3, read-out: IC50 3): > 25 µM
IC90 (M. mycetomatis MM55; MM55, replicate 3, read-out: IC90 3): > 25 µM
SMILES: Cc1ccc(S(=O)(=O)Nc2cccc3cccnc23)cc1 [MMV233495]
Drug static or cidal (M. mycetomatis): Static
activity at 25 µM ([1]; 25 uM, mean of replicates, read-out: Percentage survival at 25um, 25 uM mean): 17.1%
activity at 25 µM [1, 13]: 5.12%
activity at 25 µM [1, 14]: -0.547%
activity at 25 µM [1, 15]: 46.8%
activity at 100 µM ([1]; mean of replicates, read-out: Percentage survival at 100um, 100 uM mean): 31.3%
activity at 100 µM ([1]; replicate 1, read-out: Percentage survival at 100um, 100 uM A): -0.389%
activity at 100 µM ([1]; replicate 2, read-out: Percentage survival at 100um, 100 uM A): 38.9%
activity at 100 µM ([1]; replicate 3, read-out: Percentage survival at 100um, 100 uM A): 55.5%

SMILES: COC(=O)Nc1nc2ccccc2[nH]1 [MMV344625, Carbendazim]
Drug static or cidal (M. mycetomatis MM55; M. mycetomatis): Static
IC50 (M. mycetomatis MM55; MM55, Table 2, M. mycetomatis MM55, read-out: IC50): 1.32 µM
IC50 (M. mycetomatis MM55; [5]): 1.32 µM
IC50 (M. mycetomatis MM55; [7]): 2.28 µM
IC90 (M. mycetomatis MM55; [8]): 4.72 µM
IC50 (M. mycetomatis MM55; [9]): 0.7 µM
IC90 (M. mycetomatis MM55; [10]): 1.5 µM
IC50 (M. mycetomatis MM55; [11]): 0.97 µM
IC90 (M. mycetomatis MM55; [12]): > 25 µM
Effect on larvae survival Day 4 (words) ([2]; 20 μM per larvae, vs infected control): Increase survival
Effect on larvae survival Day 4 (words) ([2]; 20 μM per larvae, vs infected control, listed as carbendazim): significantly increase larvae survival
Effect on larvae survival Day 10 (words) ([2]; 20 μM per larvae, vs infected control, day ten): No
In vivo efficacy, Enhanced survival compared to control? [2, 16]: no
In vivo efficacy, Larvae survival % [2, 16]: 6.7%
MIC50 ([3]; Table 3 and Fig 5, benzimidazole carbamates, M. mycetomatis, read-out: MIC50): 0.5 µM (≈ 0.0956 µg/mL)
MIC50 ([3]; median MIC over ten M. mycetomatis isolates, no asterisk, read-out: MIC50): 0.5 µM (≈ 0.0956 µg/mL)
MIC50 ([3]; over the tested M. mycetomatis isolates, read-out: MIC50 mean): 0.5 µM (≈ 0.0956 µg/mL)
MIC ([3]; isolate CBS247.48, read-out: MIC CBS247.48): 0.5 µM (≈ 0.0956 µg/mL)
MIC ([3]; isolate MM14, read-out: MIC MM14): < 0.0312 µM
MIC ([3]; isolate MM45, read-out: MIC MM45): 1 µM (≈ 0.191 µg/mL)
MIC ([3]; isolate MM55, read-out: MIC MM55): 0.5 µM (≈ 0.0956 µg/mL)
MIC ([3]; isolate P1, read-out: MIC P1): 0.5 µM (≈ 0.0956 µg/mL)
MIC ([3]; isolate ParijsAl1, read-out: MIC ParijsAl1): 1 µM (≈ 0.191 µg/mL)
MIC ([3]; isolate Peru72012, read-out: MIC Peru72012): 1 µM (≈ 0.191 µg/mL)
MIC ([3]; isolate So1, read-out: MIC So1): 0.5 µM (≈ 0.0956 µg/mL)
MIC ([3]; isolate i1, read-out: MIC i1): 0.5 µM (≈ 0.0956 µg/mL)
MIC ([3]; isolate i11, read-out: MIC i11): 2 µM (≈ 0.382 µg/mL)
activity at 25 µM ([1]; 25 uM, replicate A, M. mycetomatis MM55, read-out: Percentage survival at 25um, 25 um A): 1.64%
activity at 100 µM ([1]; mean of three, M. mycetomatis MM55, read-out: Percentage survival at 100um, 100 uM mean): 8.48%
activity at 100 µM ([1]; replicate 1, M. mycetomatis MM55, read-out: Percentage survival at 100um, 100 uM A (first replicate column)): 0.376%
activity at 100 µM ([1]; replicate 2, M. mycetomatis MM55, read-out: Percentage survival at 100um, 100 uM A (second replicate column)): 3.66%
activity at 100 µM ([1]; replicate 3, M. mycetomatis MM55, read-out: Percentage survival at 100um, 100 uM A (third replicate column)): 21.4%
activity at 25 µM ([1]; read-out: Percentage survival at 25um, 25 uM B): 6.23%
activity at 25 µM ([1]; read-out: Percentage survival at 25um, 25 uM C): 2.7%
activity at 25 µM ([1]; read-out: Percentage survival at 25um, 25 uM mean): 3.52%
Inhibits growth of Medicopsis romeroi at 25 μM [4]: inhibit the growth
